Reference: the supplement of paper PMC10307832

Compound: Cc1ccccc1C(C(=O)NC1CCCCC1)N(C(=O)Cn1ccnc1C)c1cccc(F)c1 [IDH-C35] + N=C(N)NC(=N)NCCc1ccccc1 [Phenformin] (partner 250 µM)
Test: relative viability (nuclei count vs DMSO), 5 days (fraction); higher = more cells survive
Conditions: first compound 8 µM
How it was run: (§1)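 Each reported value is a median over duplicate plates. It expresses relative viability: treated-well nuclei count divided by vehicle-well nuclei count. Lung cancer cell lines in 1536-well plates were dosed by pin tool a day after seeding, alone with one drug or with a fixed anchor-drug dose plus five library-drug doses (not always all listed) in √10 steps, and nuclei were counted after 5 days.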

Cell Line	relative viability
BEN	0.282
NCI-H1563	0.649

Compound: CC1=C(C(=NN1)C)CC2=C(C3=C(S2)N(C(=O)N(C3=O)C)CC(C)C)C(=O)N4C[C@@H](CO4)O + CC(=O)c1c(C)c2cnc(Nc3ccc(N4CCNCC4)cn3)nc2n(C2CCCC2)c1=O [Palbociclib] (partner 0.5 µM)
Test: as above
Conditions: first compound 0.0025 µM
How it was run: as §1

Cell Line	relative viability
NCI-H522	1.08
NCI-H727	0.697
NCI-H1650	0.344
NCI-H1993	0.689
SW 1573	0.469
NCI-H838	0.206
LCLC-103H	0.426
NCI-H520	0.256
NCI-H2126	0.356
EMC-BAC-2	0.549
NCI-H2085	0.495
HCC-366	0.377
NCI-H1666	0.702
LK-2	0.642
NCI-H2087	0.244
NCI-H2342	0.514
SK-MES-1	0.358
H3255	0.32
COR-L23	0.291
COR-L 105	0.433
LOU-NH91	0.535
ChaGo-K-1	0.956
NCI-H2170	0.432
NCI-H2405	0.529
HOP-62	0.409
HCC-44	0.989
SW 900	0.541
LU99A	0.476
BEN	0.448
NCI-H1648	0.261

Same assay, conditions: first compound 0.007906 µM

Cell Line	relative viability
NCI-H522	1.02
NCI-H727	0.655
NCI-H1650	0.351
NCI-H1993	0.731
SW 1573	0.439
NCI-H838	0.193
LCLC-103H	0.471
NCI-H520	0.225
NCI-H2126	0.335
EMC-BAC-2	0.543
NCI-H2085	0.439
HCC-366	0.406
NCI-H1666	0.641
LK-2	0.715
NCI-H2087	0.264
NCI-H2342	0.562
SK-MES-1	0.336
H3255	0.326
COR-L23	0.266
COR-L 105	0.423
LOU-NH91	0.565
ChaGo-K-1	0.937
NCI-H2170	0.446
NCI-H2405	0.531
HOP-62	0.418
HCC-44	0.992
SW 900	0.583
LU99A	0.493
BEN	0.484
NCI-H1648	0.271

Same assay, conditions: first compound 0.025 µM

Cell Line	relative viability
NCI-H522	0.852
NCI-H727	0.676
NCI-H1650	0.374
NCI-H1993	0.709
SW 1573	0.42
NCI-H838	0.182
LCLC-103H	0.508
NCI-H520	0.259
NCI-H2126	0.368
EMC-BAC-2	0.499
NCI-H2085	0.431
HCC-366	0.387
NCI-H1666	0.734
LK-2	0.646
NCI-H2087	0.193
NCI-H2342	0.442
SK-MES-1	0.319
H3255	0.269
COR-L23	0.238
COR-L 105	0.395
LOU-NH91	0.508
ChaGo-K-1	0.943
NCI-H2170	0.431
NCI-H2405	0.54
HOP-62	0.461
HCC-44	0.961
SW 900	0.624
LU99A	0.41
BEN	0.471
NCI-H1648	0.297

Same assay, conditions: first compound 0.07906 µM

Cell Line	relative viability
NCI-H522	0.521
NCI-H727	0.682
NCI-H1650	0.327
NCI-H1993	0.597
SW 1573	0.407
NCI-H838	0.275
LCLC-103H	0.478
NCI-H520	0.239
NCI-H2126	0.327
EMC-BAC-2	0.569
NCI-H2085	0.451
HCC-366	0.372
NCI-H1666	0.591
LK-2	0.626
NCI-H2087	0.16
NCI-H2342	0.502
SK-MES-1	0.329
H3255	0.296
COR-L23	0.245
COR-L 105	0.403
LOU-NH91	0.496
ChaGo-K-1	0.878
NCI-H2170	0.39
NCI-H2405	0.473
HOP-62	0.404
HCC-44	0.894
SW 900	0.497
LU99A	0.436
BEN	0.423
NCI-H1648	0.207

Same assay, conditions: first compound 0.25 µM

Cell Line	relative viability
NCI-H522	0.618
NCI-H727	0.679
NCI-H1650	0.347
NCI-H1993	0.75
SW 1573	0.47
NCI-H838	0.182
LCLC-103H	0.443
NCI-H520	0.204
NCI-H2126	0.369
EMC-BAC-2	0.549
NCI-H2085	0.492
HCC-366	0.523
NCI-H1666	0.636
LK-2	0.457
NCI-H2087	0.223
NCI-H2342	0.593
SK-MES-1	0.333
H3255	0.315
COR-L23	0.318
COR-L 105	0.383
LOU-NH91	0.526
ChaGo-K-1	0.931
NCI-H2170	0.409
NCI-H2405	0.563
HOP-62	0.574
HCC-44	1.05
SW 900	0.651
LU99A	0.391
BEN	0.502
NCI-H1648	0.283

Compound: CC1=C(C(=NN1)C)CC2=C(C3=C(S2)N(C(=O)N(C3=O)C)CC(C)C)C(=O)N4C[C@@H](CO4)O + COc1cccc2cc(-c3nc([C@H]4CC[C@H](C(=O)O)CC4)n4ncnc(N)c34)[nH]c12 [OSI-027] (partner 0.5 µM)
Test: as above
Conditions: first compound 0.0025 µM
How it was run: as §1

Cell Line	relative viability
NCI-H522	0.804
NCI-H1623	0.525
NCI-H727	0.731
NCI-H1650	0.788
NCI-H1993	0.515
SW 1573	0.711
NCI-H838	0.396
LCLC-103H	0.529
